Experimental data from US20100119599A1 (ARCHER PHARMACEUTICALS, INC., priority 2006, published 2010).

Key:
[1] = system: Aβ1-40; assay: Measurement of Aβ1-40 in culture medium of 7W WT APP751 CHO cells by ELISA; assay type: cell-based, Chinese hamster; conditions: for Aβ1-40 (% of control): CHO cells that overexpress APP751, zero = below the detection limit of the assay; for activity at 5 µM: Cricetulus griseus, Table 1, 5 μM test compound, CHO cells stably transfected with human APP751, culture medium, ELISA, control DMSO, 0 = no detectable amount
[2] = system: Aβ1-42; assay: Measurement of Aβ1-42 in culture medium of 7W WT APP751 CHO cells by ELISA; assay type: cell-based, Chinese hamster; conditions: for Aβ1-42 (% of control): CHO cells that overexpress APP751, zero = below the detection limit of the assay; for activity at 5 µM: Cricetulus griseus, Table 1, 5 μM test compound, CHO cells stably transfected with human APP751, culture medium, ELISA, control DMSO, 0 = no detectable amount, read-out: Aβ1-42 (% of control)
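Further: 5 µM test compound but RI-coded compounds at 10 µM for 24 hours.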

Compound: CC1=C(C(=O)Nc2ccccc2)C(c2ccsc2)C(C#N)=C(SCC(=O)Nc2ccccc2C)N1 (centres unmarked) [RI_48]
- Aβ1-40 (% of control) [1]: 86.5 % of control
- Aβ1-42 (% of control) [2]: 100 % of control

Compound: CCOCCOC(=O)C1=C(C)NC2=C(C(=O)CCC2)C1c1cccc(O)c1 (centres unmarked) [ST013342, 2-ethoxyethyl 4-(3-hydroxyphenyl)-2-methyl-5-oxo-1,4,6,7,8-pentahydroquinoline-3-carboxylate]
- activity at 5 µM [1]: 69.7%
- activity at 5 µM [2]: 55.5%

Compound: CCSCCOC(=O)C1=C(C)NC2=C(C(=O)CC(C)(C)C2)C1c1ccccc1C (centres unmarked) [ST052342, 2-ethylthioethyl 2,7,7-trimethyl-4-(2-methylphenyl)-5-oxo-1,4,6,7,8-pentahydroquinoline-3-carboxylate]
- activity at 5 µM [1]: 13.7%
- activity at 5 µM [2]: 9.88%

Compound: COc1ccccc1C1C(C(=O)OCCc2ccccc2)=C(C)NC2=C1C(=O)CCC2 (centres unmarked) [ST015110, 2-phenylethyl 4-(2-methoxyphenyl)-2-methyl-5-oxo-1,4,6,7,8-pentahydroquinoline-3-carboxylate]
- activity at 5 µM [1]: 42.8%
- activity at 5 µM [2]: 90.1%

Compound: COCCOC(=O)C1=C(C)NC2=C(C(=O)CCC2)C1c1ccc(O)cc1 (centres unmarked) [ST013254, 2-methoxyethyl 4-(4-hydroxyphenyl)-2-methyl-5-oxo-1,4,6,7,8-pentahydroquinoline-3-carboxylate]
- activity at 5 µM [1]: 49.6%
- activity at 5 µM [2]: 76.9%

Compound: CCOc1ccc(NC(=O)CSC2=C(C#N)C(c3cccs3)C(C(=O)Nc3ccccc3)=C(C)N2)cc1 (centres unmarked) [RI_9]
- Aβ1-40 (% of control) [1]: 56.3 % of control
- Aβ1-42 (% of control) [2]: 27.6 % of control

Compound: CCOc1cc(C2C(C(=O)OCc3ccc(OC)cc3)=C(C)NC3=C2C(=O)CC(C)(C)C3)ccc1O (centres unmarked) [ST016964, (4-methoxyphenyl)methyl 4-(3-ethoxy-4-hydroxyphenyl)-2,7,7-trimethyl-5-oxo-1,4,6,7,8-pentahydroquinoline-3-carboxylate]
- activity at 5 µM [1]: 36.4%
- activity at 5 µM [2]: 40%

Compound: COc1ccccc1C1C(C(=O)OCCOc2ccccc2)=C(C)NC2=C1C(=O)CC(C)(C)C2 (centres unmarked) [ST015108, 2-phenoxyethyl 4-(2-methoxyphenyl)-2,7,7-trimethyl-5-oxo-1,4,6,7,8-pentahydroquinoline-3-carboxylate]
- activity at 5 µM [1]: 33%
- activity at 5 µM [2]: 92.1%

Compound: CCCOCCOC(=O)C1=C(C)NC2=C(C(=O)CC(C)(C)C2)C1c1ccc(Br)cc1 (centres unmarked) [ST052437, 2-propoxyethyl 4-(4-bromophenyl)-2,7,7-trimethyl-5-oxo-1,4,6,7,8-pentahydroquinoline-3-carboxylate]
- activity at 5 µM [1]: 5.31%
- activity at 5 µM [2]: 16.5%

Compound: CCSCCOC(=O)C1=C(C)NC2=C(C(=O)CC(C)(C)C2)C1c1cccc(C)c1 (centres unmarked) [ST052457, 2-ethylthioethyl 2,7,7-trimethyl-4-(3-methylphenyl)-5-oxo-1,4,6,7,8-pentahydroquinoline-3-carboxylate]
- activity at 5 µM [1]: 38.1%
- activity at 5 µM [2]: 63.9%

Compound: COC(=O)C1=C(C)NC2=C(C(=O)CCC2)C1c1ccc(OC)c(OC)c1OC (centres unmarked) [ST013147, methyl 2-methyl-5-oxo-4-(2,3,4-trimethoxyphenyl)-1,4,6,7,8-pentahydroquinoline-3-carboxylate]
- activity at 5 µM [1]: 72%
- activity at 5 µM [2]: 45.4%

Compound: COc1ccc(C2C(C(=O)OC3CCCC3)=C(C)NC3=C2C(=O)CC(C)(C)C3)c(OC)c1OC (centres unmarked) [ST013328, cyclopentyl 2,7,7-trimethyl-5-oxo-4-(2,3,4-trimethoxyphenyl)-1,4,6,7,8-pentahydroquinoline-3-carboxylate]
- activity at 5 µM [1]: 43.1%
- activity at 5 µM [2]: 93.4%

Compound: COC(=O)C1=C(C)NC2=C(C(=O)CCC2)C1c1ccc(Br)cc1 (centres unmarked) [ST028547, methyl 4-(4-bromophenyl)-2-methyl-5-oxo-1,4,6,7,8-pentahydroquinoline-3-carboxylate]
- activity at 5 µM [1]: 72.1%
- activity at 5 µM [2]: 45.3%

Compound: CC1=C(C(=O)Nc2ccccc2)C(c2cccs2)C(C#N)=C(SCC(=O)Nc2ccccc2C(C)C)N1 (centres unmarked) [RI_56]
- Aβ1-40 (% of control) [1]: 54.5 % of control
- Aβ1-42 (% of control) [2]: 100 % of control

Compound: CCOc1ccc(C2C(C(=O)OC(C)C)=C(C)NC3=C2C(=O)CC(c2ccc(OC)cc2)C3)cc1 (centres unmarked) [ST017011, methylethyl 4-(4-ethoxyphenyl)-7-(4-methoxyphenyl)-2-methyl-5-oxo-1,4,6,7,8-pentahydroquinoline-3-carboxylate]
- activity at 5 µM [1]: 45.7%
- activity at 5 µM [2]: 74%

Compound: CCCCCOC(=O)C1=C(C)NC2=C(C(=O)CC(C)(C)C2)C1c1ccc([N+](=O)[O-])cc1 (centres unmarked) [ST216093, pentyl 2,7,7-trimethyl-4-(4-nitrophenyl)-5-oxo-1,4,6,7,8-pentahydroquinoline-3-carboxylate]
- activity at 5 µM [1]: 0%
- activity at 5 µM [2]: 0%

Compound: N#CC1=C(N)NC(SCC(N)=O)=C(C#N)C1c1ccccc1Cl (centres unmarked) [ST050859, 2-[6-amino-4-(2-chlorophenyl)-3,5-dicyano-2-1,4-dihydropyridylthio]acetamide]
- Aβ1-40 (% of control) [1]: 75.54 % of control
- Aβ1-42 (% of control) [2]: 35.47 % of control

Compound: COC(=O)C1=C(C)NC2=C(C(=O)CC(c3ccc(OC)c(OC)c3)C2)C1c1cc(OC)c(OC)c(OC)c1 (centres unmarked) [ST024574, methyl 7-(3,4-dimethoxyphenyl)-2-methyl-5-oxo-4-(3,4,5-trimethoxyphenyl)-1,4,6,7,8-pentahydroquinoline-3-carboxylate]
- activity at 5 µM [1]: 65.3%
- activity at 5 µM [2]: 83.6%

Compound: CC1=C(C(=O)OCCc2ccccc2)C(c2ccc(Cl)cc2)C2=C(CC(C)(C)CC2=O)N1 (centres unmarked) [ST015106, 2-phenylethyl 4-(4-chlorophenyl)-2,7,7-trimethyl-5-oxo-1,4,6,7,8-pentahydroquinoline-3-carboxylate]
- activity at 5 µM [1]: 13.2%
- activity at 5 µM [2]: 0%

Compound: N#CC1=C(N)NC(SCC(N)=O)=C(C#N)C1c1ccccc1Br (centres unmarked) [RI_1]
- Aβ1-40 (% of control) [1]: 93.2 % of control
- Aβ1-42 (% of control) [2]: 75.4 % of control

Compound: CCOC(=O)C1=C(C)NC(C)=C(C(=O)OCC)C1c1ccc(F)cc1 [ST211500, ethyl 5-(ethoxycarbonyl)-4-(4-fluorophenyl)-2,6-dimethyl-1,4-dihydropyridine-3-carboxylate]
- Aβ1-40 (% of control) [1]: 20.67 % of control
- Aβ1-42 (% of control) [2]: 19.53 % of control

Compound: CC1=C(C(=O)OCCOC(C)C)C(c2ccc([N+](=O)[O-])cc2)C2=C(CC(C)(C)CC2=O)N1 (centres unmarked) [ST052272, 2-(methylethoxy)ethyl 2,7,7-trimethyl-4-(4-nitrophenyl)-5-oxo-1,4,6,7,8-pentahydroquinoline-3-carboxylate]
- activity at 5 µM [1]: 65.8%
- activity at 5 µM [2]: 29.2%

Compound: CC1(C)CC(=O)C2=C(C1)N(c1cc(C(F)(F)F)ccc1Cl)C(N)=C(C#N)C2c1ccc(Br)s1 (centres unmarked) [ST046868, 2-amino-4-(5-bromo(2-thienyl))-1-[2-chloro-5-(trifluoromethyl)phenyl]-7,7-dimethyl-5-oxo-1,4,6,7,8-pentahydroquinoline-3-carbonitrile]
- activity at 5 µM [1]: 29.8%
- activity at 5 µM [2]: 84%

Compound: CC1=C(C(=O)OCCc2ccccc2)C(c2ccc(C)cc2)C2=C(CC(C)(C)CC2=O)N1 (centres unmarked) [ST015099, 2-phenylethyl 2,7,7-trimethyl-4-(4-methylphenyl)-5-oxo-1,4,6,7,8-pentahydroquinoline-3-carboxylate]
- activity at 5 µM [1]: 14.8%
- activity at 5 µM [2]: 33.8%

Compound: CCOc1ccccc1C1C(C(=O)OC2CCCCC2)=C(C)NC2=C1C(=O)CC(C)(C)C2 (centres unmarked) [ST017304, cyclohexyl 4-(2-ethoxyphenyl)-2,7,7-trimethyl-5-oxo-1,4,6,7,8-pentahydroquinoline-3-carboxylate]
- activity at 5 µM [1]: 52%
- activity at 5 µM [2]: 57.2%
